Patent US20090011447A1, “QUANTIFICATION OF VITELLOGENIN” (priority 2006, published 2009)
“And” between values parts separate entries of the source, which are not always exact repeats. Identical values can stand only once.

Legend:
Format in all cases: in vivo
plasma Vtg [1] = experiment: Vtg induction with β-estradiol in Rainbow trout, plasma signature peptide quantified by HPLC-QqToF-MS/MS; conditions: experimental (E) Rainbow trout, individual fish
Description: (§1) Thirteen juvenile Rainbow trout and ten mature Atlantic salmon were kept in two 60 gallon tanks with running fresh and sea water, respectively. A 12 hour light-darkness cycle was maintained during the experiment. After one month of acclimatization, experimental fish were injected intraperitoneally four times, at one week intervals, with a dose of 10 mg of β-estradiol per kilogram of body weight using a 10 mg/mL solution in oil:acetone (9:1). Control fish were injected with the oil:acetone solution only.
(§2) One week before the first injection and one week after the last injection, fish were anesthetized using tricaine methanesulfonate (TMS) and blood samples were collected from the caudal vein using heparinized syringes and transferred in 1 mL portions into plastic tubes kept in ice. Samples were centrifuged at 3000 rpm for 5 minutes at 0° C. Plasma was separated and kept frozen at −80° C. until further analysis.
(§3) Five μL of plasma were mixed with 100 μL of denaturing buffer (8M urea, 4 mM dithiothreitol) and heated at 65° C. Then, 300 μL of a 50 mM solution of NH4HCO3 were added, followed by 95 μL of a 20 μg/mL trypsin solution. Digestion was carried out at 38° C. for 24 hours. Aliquots of 100 μL of the digested samples were mixed with 380 μL of solvent B (H2O: acetonitrile: acetic acid 70:30:0.1) and spiked with 20 μL of 5 μg/mL labeled standard solution. Finally, the samples were passed through 0.45 μm filters (Millipore Billerica Mass., USA, Cat. No. SJHV004NS) prior to injection into the HPLC.
(§4) In the case of Rainbow trout and salmon, samples and standards were analyzed with a HPLC system (HP 1050 from Hewlett-Packard, Palo Alto Calif., USA) coupled on-line to a QqToF (QStar XL, Applied Biosystems, Foster City Calif., USA) tandem mass spectrometer equipped with an ESI ion source (TurbolonSpray). […]
(§5) For quantification purposes, the extracted ion chromatograms of these diagnostic product ions were generated using a 2 Da mass range window around the selected product ions and manually integrated. […]

plasma Vtg [2] = experiment: Vtg induction with β-estradiol in Atlantic salmon, plasma signature peptide quantified by HPLC-QqToF-MS/MS; conditions: experimental (E) Atlantic salmon, individual fish
Description: as §1, §2, §3, §4, §5

Vtg = Vtg induction with β-estradiol in Atlantic cod, assessed by SDS-PAGE; conditions: experimental Atlantic cod serum, Coomassie blue stained gel, vs control fish
Description: Twelve mature female Atlantic cod fish were kept in a 60 gallon tank with a running sea water supply and fed, ad libitum. A 12 hour light-darkness cycle was maintained during the experiment. After one month of acclimatization, experimental fish were injected intraperitoneally four times, at one week intervals, a dose of 10 mg of β-estradiol per kilogram of fish body weight using a 10 mg/ml solution in oil:acetone (9:1). Control fish were injected only with the oil:acetone solution. One week after the last injection, fish were anesthetized using tricaine methanesulfonate (TMS) and bled. Blood samples were collected from the caudal vein using heparinized syringes and transferred in 1 mL portions into plastic tubes kept in ice. Twenty microliters of a 4 TIU aprotinin solution were added to each sample, homogenized and centrifuged at 3000 rpm for 5 minutes at 0° C. Plasma was separated and kept frozen at -80° C. until further analysis. Separation of Vtg by SDS-PAGE and subsequent “in-gel” digestion was performed following the procedure described in detail by […] et al. with minor modifications^65. Five microliters of thawed plasma from both experimental and control fish were mixed and loaded onto a 6% acrylamide gel and run for one hour at 180 V. The gel was stained using the colloidal Coomassie blue protocol. […]

[3] = converted from SP assuming 1:1 molar ratio
[4] = one week after last of four weekly i.p. injections of 10 mg/kg, 10 mg/kg

C[C@]12CC[C@@H]3c4ccc(O)cc4CC[C@H]3[C@@H]1CC[C@@H]2O [β-estradiol]
Vtg Conc, After β-estradiol (plasma Vtg [1]): 0.351 µM and 0.487 µM and 0.343 µM and 0.278 µM and 0.375 µM and 0.471 µM and 0.120 µM and 0.225 µM and 0.113 µM and 0.344 µM and 0.460 µM | Vtg Conc, After β-estradiol (plasma Vtg [1]; [3]): 6.389 µg/mL and 8.867 µg/mL and 6.239 µg/mL and 5.059 µg/mL and 6.830 µg/mL and 8.562 µg/mL and 2.182 µg/mL and 4.091 µg/mL and 2.057 µg/mL and 6.264 µg/mL and 8.370 µg/mL | SP Conc, After β-estradiol (plasma Vtg [1]; [4]): 0.576 µg/mL and 0.799 µg/mL and 0.562 µg/mL and 0.456 µg/mL and 0.615 µg/mL and 0.771 µg/mL and 0.197 µg/mL and 0.368 µg/mL and 0.185 µg/mL and 0.564 µg/mL and 0.754 µg/mL | Vtg Conc, After β-estradiol (plasma Vtg [2]): 0.383 µM and 0.591 µM and 0.268 µM and 0.399 µM and 0.330 µM | Vtg Conc, After β-estradiol (plasma Vtg [2]; [3]): 6.967 µg/mL and 10.758 µg/mL and 4.876 µg/mL and 7.254 µg/mL and 5.997 µg/mL | SP Conc, After β-estradiol (plasma Vtg [2]; [4]): 0.628 µg/mL and 0.969 µg/mL and 0.439 µg/mL and 0.653 µg/mL and 0.540 µg/mL | Vtg induction (SDS-PAGE band) (Vtg): strong induced band
